Measurements: article PMC11022729 (Advanced Science, 2024)

Columns and labels:
[1] = target: histamine H1 receptor (Homo sapiens, UniProt P35367); test: [3H]-pyrilamine competition binding assay; design: expressed in transfected cells; host or cells: CHO
Protocol: For membrane preparations of CHO cells stably expressing the human histamine H1 receptor (H1R), cells were washed and harvested with PBS buffer, homogenized by sonication (3 × 15 s) in ice‐cold HEPES‐H1R binding buffer (20 mM HEPES, 10 mM MgCl2, and 100 mM NaCl), followed by a centrifugation step (20 000 × g, 30 min, 4 °C). The resulting cell pellet was resuspended in binding buffer and homogenized using a hand potter. Membrane extracts were stored at −80 °C. Prior to use, the membranes were handled as described for D2R/D3R. […] Assays were performed at least in duplicates with appropriate concentrations between 0.1 nM and 100 µM of the test compound. […] The subsequent procedure was performed as described for D2R/D3R.

[2] = system: mice; test: Von Frey filament test; format: in vivo; details: 10 mg kg−1 i.p., hindpaws, vs vehicle
[3] = system: IB4-binding DRG neurons; test: Whole-cell current-clamp recordings on sensitized DRG neurons; format: cell-based, mouse; details: 50 µM
[4] = system: mice; test: Histamine-induced itch behavior; format: in vivo, mouse; details: i.p.
Text: (§1) Chloroquine‐induced scratching in mice is driven by MrgprA3 activation in the NP2 population of sensory neurons.^[ [10], [29] ^] To further explore the antipruritic efficacy of compound 6 in histamine‐independent itch, we assessed the behavioral response after s.c. injection of the peptide Ser‐Leu‐Ile‐Gly‐Arg‐Leu (SLIGRL) that evokes scratching by activation of MrgprC11,^[ [30] ^] which is expressed in the NP2 and NP3 population.^[ [10] ^] […] Moreover, compound 6 ameliorated histamine‐independent itch evoked by s.c. injection of β‐alanine that activates MrgprD^[ [31] ^] in the NP1 population of sensory neurons^[ [10] ^] (Figure 3F). In contrast, scratching induced by subcutaneous histamine was not affected by compound 6 (Figure 3G). The lack of an effect on histamine‐evoked scratching was supported by the low affinity of compound 6 for histamine H1 receptors, which was determined using a [^3H]‐pyrilamine competition binding assay in vitro (Table S3, Supporting Information). […] We also investigated the efficacy of compound 6 after peroral (p.o.) delivery.
(§2) Three to four days before the day of the experiment, the fur on the dorsolateral aspect of the neck was shaved under brief isoflurane anesthesia. […] Number of scratching bouts directed toward the nape of the neck was assessed over 30 min by videotaping. […]

[5] = system: mice; test: MC903 model of persistent itch; format: in vivo, mouse; details: i.p. at day 8, vs vehicle
Protocol: (§3) We next assessed the efficacy of compound 6 in the treatment of chronic itching. […] These findings are important because they indicate that Slack activators can reduce existing itching.
Chronic itching was induced using the MC903 model.^[ [48] ^] The fur on the dorsolateral aspect of the neck was shaved under brief isoflurane anesthesia. Five days later, 20 µL MC903 (0.2 mM; Calcipotriol, Tocris) solved in absolute ethanol was applied to the skin at the back of the neck under brief anesthesia for 7 consecutive days. On day 8, the mice were habituated for 30 min in a plexiglass cylinder (30 cm in diameter). Compound 6 hydrochloride or vehicle was administered i.p., and 15 min later, spontaneous scratching was recorded over 30 min by videotaping.

[6] = system: mice; test: DNFB model of allergic contact dermatitis (persistent itch); format: in vivo, mouse; details: i.p. after the second DNFB exposure, vs vehicle
Protocol: as §3
To induce persistent itch, a model of allergic contact dermatitis^[ [32] ^] was used. The fur on the dorsolateral aspect of the neck was shaved under brief isoflurane anesthesia. Three to four days later, the shaved skin area was exposed to 100 µL of 0.15% 2,4‐dinitrofluorobenzene (DNFB) in acetone/olive oil (3:1). After 10–11 days, the skin was shaved again, and the DNFB solution was applied 3–4 days later (i.e., two painting sessions 14 days apart). Ninety minutes after the second DNFB application, the mice were habituated to a plexiglass cylinder (30 cm diameter) for 15 min. Compound 6 hydrochloride or vehicle was administered i.p., and 15 min later, spontaneous scratching was recorded over 30 min by videotaping.

[7] = system: mice; test: β-alanine-induced itch behavior; format: in vivo, mouse; details: i.p.
Text: as §1, §2

[8] = system: Na+ channel; test: SafetyScreen44 panel; details: 10 µM
[9] = target: serotonin 5-HT3 receptor (Homo sapiens, UniProt P46098); test: SafetyScreen44 panel; details: read-out: binding inhibition
serotonin 5-HT3 receptor, sequence (P46098 24-478): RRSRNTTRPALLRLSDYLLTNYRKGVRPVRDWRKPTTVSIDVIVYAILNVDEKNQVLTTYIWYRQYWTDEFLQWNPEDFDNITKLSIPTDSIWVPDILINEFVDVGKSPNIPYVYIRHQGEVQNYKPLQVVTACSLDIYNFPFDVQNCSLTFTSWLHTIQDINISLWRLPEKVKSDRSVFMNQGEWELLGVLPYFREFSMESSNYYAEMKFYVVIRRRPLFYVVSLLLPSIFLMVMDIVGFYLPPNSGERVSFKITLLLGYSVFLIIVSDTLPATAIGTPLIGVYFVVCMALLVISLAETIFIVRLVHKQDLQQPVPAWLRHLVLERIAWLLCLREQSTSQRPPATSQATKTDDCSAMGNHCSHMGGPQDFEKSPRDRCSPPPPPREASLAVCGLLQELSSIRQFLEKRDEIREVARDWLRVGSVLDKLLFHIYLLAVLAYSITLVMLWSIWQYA
Protocol: (§4) Measurements were performed in duplicate.
(§5) channel, which were obtainedfrom ratspecimens).
(§6) in brackets) specific for each target.

[10] = target: T1, serotonin 5-HT1A receptor (Homo sapiens, UniProt P08908); test: SafetyScreen44 panel; details: read-out: binding inhibition
T1 construct: purchased Eurofins Cerep P270
T1 sequence (P08908 whole entry): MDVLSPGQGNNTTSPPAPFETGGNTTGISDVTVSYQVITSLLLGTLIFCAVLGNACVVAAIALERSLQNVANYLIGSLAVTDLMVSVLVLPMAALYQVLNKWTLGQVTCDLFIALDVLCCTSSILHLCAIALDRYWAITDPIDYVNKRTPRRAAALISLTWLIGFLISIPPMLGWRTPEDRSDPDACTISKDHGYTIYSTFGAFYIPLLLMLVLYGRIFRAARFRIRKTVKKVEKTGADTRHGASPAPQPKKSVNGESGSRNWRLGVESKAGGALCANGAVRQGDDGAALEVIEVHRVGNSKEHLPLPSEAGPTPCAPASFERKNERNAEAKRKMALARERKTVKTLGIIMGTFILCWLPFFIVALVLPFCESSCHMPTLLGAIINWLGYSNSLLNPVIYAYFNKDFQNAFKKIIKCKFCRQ
Protocol: as §4, §5, §6

[11] = target: muscarinic M2 receptor (Homo sapiens, UniProt P08172); test: SafetyScreen44 panel; details: read-out: binding inhibition
muscarinic M2 receptor, sequence (P08172 whole entry): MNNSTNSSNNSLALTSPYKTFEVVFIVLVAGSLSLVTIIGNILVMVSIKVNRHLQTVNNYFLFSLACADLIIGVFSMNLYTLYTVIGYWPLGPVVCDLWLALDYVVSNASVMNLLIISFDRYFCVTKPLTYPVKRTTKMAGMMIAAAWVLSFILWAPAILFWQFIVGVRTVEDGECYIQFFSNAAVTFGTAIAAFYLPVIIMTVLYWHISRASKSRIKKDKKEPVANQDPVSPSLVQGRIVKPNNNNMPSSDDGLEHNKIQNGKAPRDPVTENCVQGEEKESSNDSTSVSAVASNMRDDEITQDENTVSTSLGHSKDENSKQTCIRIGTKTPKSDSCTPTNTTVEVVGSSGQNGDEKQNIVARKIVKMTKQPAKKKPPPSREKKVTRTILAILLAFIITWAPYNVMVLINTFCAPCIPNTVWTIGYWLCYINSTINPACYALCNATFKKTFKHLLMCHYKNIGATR
Protocol: as §4, §5, §6

[12] = target: T2, serotonin 5-HT1B receptor (Homo sapiens, UniProt P28222); test: SafetyScreen44 panel; details: read-out: binding inhibition
T2 construct: purchased Eurofins Cerep P270
T2 sequence (P28222 whole entry): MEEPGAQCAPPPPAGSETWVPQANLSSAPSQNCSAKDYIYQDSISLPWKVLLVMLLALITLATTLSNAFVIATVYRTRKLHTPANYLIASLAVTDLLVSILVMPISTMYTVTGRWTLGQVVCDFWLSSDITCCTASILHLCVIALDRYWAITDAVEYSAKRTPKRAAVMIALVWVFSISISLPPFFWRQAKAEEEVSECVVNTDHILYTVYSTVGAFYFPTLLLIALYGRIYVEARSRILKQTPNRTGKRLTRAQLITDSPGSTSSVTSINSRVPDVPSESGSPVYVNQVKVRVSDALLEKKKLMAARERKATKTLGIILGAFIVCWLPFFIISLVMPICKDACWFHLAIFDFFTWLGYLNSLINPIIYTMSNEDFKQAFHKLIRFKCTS
Protocol: as §4, §5, §6

[13] = target: histamine H2 receptor (Homo sapiens, UniProt P25021); test: SafetyScreen44 panel; details: read-out: binding inhibition
histamine H2 receptor, sequence (P25021 whole entry): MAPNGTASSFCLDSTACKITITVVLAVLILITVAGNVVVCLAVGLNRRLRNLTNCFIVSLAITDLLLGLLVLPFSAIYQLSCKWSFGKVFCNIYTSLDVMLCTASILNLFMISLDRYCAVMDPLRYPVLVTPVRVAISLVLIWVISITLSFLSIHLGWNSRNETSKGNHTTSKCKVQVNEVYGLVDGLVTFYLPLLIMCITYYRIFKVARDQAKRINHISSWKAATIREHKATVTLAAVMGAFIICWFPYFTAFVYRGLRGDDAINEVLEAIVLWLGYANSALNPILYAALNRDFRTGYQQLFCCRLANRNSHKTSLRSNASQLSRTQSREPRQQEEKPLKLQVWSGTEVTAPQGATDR
Protocol: as §4, §5, §6

[14] = target: human ether-à-go-go (hERG) potassium channel (Homo sapiens, UniProt Q12809); test: SafetyScreen44 panel; details: 10 µM
human ether-à-go-go (hERG) potassium channel, sequence (Q12809 whole entry): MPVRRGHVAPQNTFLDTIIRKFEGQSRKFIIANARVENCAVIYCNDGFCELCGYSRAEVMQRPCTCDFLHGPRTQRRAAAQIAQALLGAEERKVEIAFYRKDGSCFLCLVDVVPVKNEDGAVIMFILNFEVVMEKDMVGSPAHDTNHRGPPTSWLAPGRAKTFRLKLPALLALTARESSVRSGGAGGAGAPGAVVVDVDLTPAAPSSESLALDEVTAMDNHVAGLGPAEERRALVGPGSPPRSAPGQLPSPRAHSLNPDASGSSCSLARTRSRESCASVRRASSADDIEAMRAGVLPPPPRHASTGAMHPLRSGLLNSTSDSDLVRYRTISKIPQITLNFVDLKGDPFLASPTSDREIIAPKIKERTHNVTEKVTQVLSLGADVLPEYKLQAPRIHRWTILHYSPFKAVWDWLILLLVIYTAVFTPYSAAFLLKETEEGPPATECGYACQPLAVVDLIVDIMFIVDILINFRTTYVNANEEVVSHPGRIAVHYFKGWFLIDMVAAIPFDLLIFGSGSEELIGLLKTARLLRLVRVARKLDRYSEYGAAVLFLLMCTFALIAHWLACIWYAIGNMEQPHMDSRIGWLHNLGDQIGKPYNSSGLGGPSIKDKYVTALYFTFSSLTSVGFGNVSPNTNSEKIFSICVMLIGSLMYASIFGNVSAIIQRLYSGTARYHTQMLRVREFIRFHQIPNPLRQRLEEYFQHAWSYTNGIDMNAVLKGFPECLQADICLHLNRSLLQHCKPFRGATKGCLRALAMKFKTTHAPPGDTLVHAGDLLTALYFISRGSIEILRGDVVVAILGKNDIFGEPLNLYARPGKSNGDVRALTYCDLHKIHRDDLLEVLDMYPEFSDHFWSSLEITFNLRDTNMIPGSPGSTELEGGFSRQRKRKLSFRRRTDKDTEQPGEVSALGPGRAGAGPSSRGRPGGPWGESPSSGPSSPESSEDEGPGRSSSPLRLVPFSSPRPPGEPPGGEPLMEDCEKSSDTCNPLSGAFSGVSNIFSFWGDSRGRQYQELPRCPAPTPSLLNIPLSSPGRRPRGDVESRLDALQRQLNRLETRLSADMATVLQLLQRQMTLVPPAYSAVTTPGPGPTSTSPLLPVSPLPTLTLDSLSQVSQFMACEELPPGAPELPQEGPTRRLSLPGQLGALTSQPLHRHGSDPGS
Protocol: as §4, §5, §6

histamine H1 receptor, sequence (P35367 whole entry): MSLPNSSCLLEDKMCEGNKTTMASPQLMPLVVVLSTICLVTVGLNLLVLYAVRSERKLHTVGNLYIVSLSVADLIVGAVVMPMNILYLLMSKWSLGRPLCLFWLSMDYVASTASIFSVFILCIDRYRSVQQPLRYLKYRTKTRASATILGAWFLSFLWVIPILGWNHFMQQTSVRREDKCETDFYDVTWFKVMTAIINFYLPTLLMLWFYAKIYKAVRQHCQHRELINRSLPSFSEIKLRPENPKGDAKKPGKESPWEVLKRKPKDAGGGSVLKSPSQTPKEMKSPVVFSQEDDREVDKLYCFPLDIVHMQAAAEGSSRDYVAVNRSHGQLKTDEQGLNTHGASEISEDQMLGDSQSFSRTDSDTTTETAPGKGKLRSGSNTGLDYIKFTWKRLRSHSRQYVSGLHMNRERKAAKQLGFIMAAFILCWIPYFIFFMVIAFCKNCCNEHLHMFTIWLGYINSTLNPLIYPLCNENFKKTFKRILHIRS

**Q.** Which results are given for `O=C(O)COCCN1CCN(C2=Nc3ccccc3Oc3ccc(Cl)cc32)CC1` [Compound 6]?
**A.** affinity for histamine H1 receptors [1]: low affinity; Ki ([1]; mean [CI 95%]): 575 nM; mechanical sensitivity (von Frey filament test) [2]: Neither mechanical nor thermal sensitivity was altered; AP amplitude ([3]; cells with recorded APs): Neither compound 6 nor the vehicle had a significant effect; AP duration at 90% repolarization (APD90) ([3]; cells with recorded APs): Neither compound 6 nor the vehicle had a significant effect; resting membrane potential (RMP) ([3]; current injection 200–950 pA): Neither compound 6 nor the vehicle significantly affected; number of AP fired ([3]; current injection 200–950 pA, after inflammatory soup): profound decrease; rheobase compared to baseline ([3]; in the 7 cells with recorded APs): visibly, but not significantly, increased; cells that elicited APs ([3]; small currents (0–220 pA), vehicle 11 of 11): 7 of 13; scratching induced by subcutaneous histamine [4]: not affected; head shaking [5]: significantly ameliorated; scratching [5]: significantly ameliorated; number of head shakes [6]: significantly reduced; number of scratching bouts [6]: significantly reduced; itch evoked by s.c. injection of β-alanine [7]: ameliorated

**Q.** Which binding inhibition [8] does the source give for `CN1CCN(C2=Nc3ccccc3Oc3ccc(Cl)cc32)CC1` [Loxapine, reference compound] here?
**A.** higher than 50%

**Q.** What about the inhibition at 10 µM [9] of the same compound?
**A.** > 50%

**Q.** What about the inhibition at 10 µM [10] of the same compound?
**A.** > 50%

**Q.** What about the inhibition at 10 µM [11] of the same compound?
**A.** > 50%

**Q.** What about the inhibition at 10 µM [12] of the same compound?
**A.** > 50%

**Q.** And the inhibition at 10 µM [13]?
**A.** > 50%

**Q.** What about the binding [14] of the same compound?
**A.** did not measurably bind
